# Reference: patent publication US8974837B2, “Pharmaceutical composition comprising an extract of Pseudolysimachion longifolium and the catalpol derivatives isolated therefrom having antiinflammatory, antiallergic and antiasthmatic activity” (Korea Research Institute of Bioscience and Biotechnology, priority 2005, dated 2015)
# What was measured:
# [1] = tested on: IgE; assay: Measurement of IgE by ELISA in plasma and BALF of OVA-challenged mice; format: in vivo, mouse; conditions: for IgE level in BALF: OVA-treated mice 59.4±38.4; for IgE level in plasma: OVA-treated mice 85.6±17.3
# Experimental: (§1) Following treatment: (1) sham-sensitization plus challenge with phosphate-buffered saline (PBS; ipNeb); (2) sensitization plus challenge with OVA (ovalbumin: Sigma A5503; Sigma, St. Louis, Mo.)(ipNeb); (3) sensitization with OVA (i.p.) plus challenge with OVA (Neb) and samples (extract of P. longifolium or montelukast) was performed to Group of mice (n=5). Briefly, mice were sensitized by intraperitoneal injection of 20 μg OVA, which was emulsified with 2 mg aluminum hydroxide in 100 μl of PBS buffer (pH 7.4) on days 0 and 14. The mice were challenged through the airways with OVA (1% in PBS) for 20 min using an ultrasonic nubuilizer (NE-U12; Omron Corp., Tokyo, Japan) on days 28, 29 and 30 after the initial sensitization. The mice were sacrificed 48 h after the last challenge (day 32) to determine the suppression effect of extract of P. longifolium or verproside on the airways of allergic asthma.
# (§2) The extract of P. longifolium, and verproside were suspended in PBS and administered intragastrically using a 25-gauge stainless steel blunt feeding needle 1 h before each challenge, and control animals were exposed only on the PBS solution. As a positive control, montelukast (MSD Korea Ltd., Seoul, Korea) was treated with the same procedure in the experiment.
# (§3) Complementary capture and detection antibody pairs for mouse IgE antibodies were purchased from PharMingen (San Diego, Calif.), and the IgE enzyme-linked immunosorbent assay (ELISA) was performed according to the manufacturer's directions. Duplicate samples in plasma were diluted to 1:100. IgE levels in each sample were measured from optical density readings at 450 nm, and IgE concentrations were calculated from a standard curve that was generated using recombinant IgE (5-2,000 ng/ml). The amount of IL-4 and IL-13 contained in BALF was measured with a specific mouse ELISA kit (R&D Systems; Minneapolis, Minn.). The detection limit of the assays was 250 pg/ml.
# [2] = tested on: OVA-challenged mice; assay: OVA-induced eosinophilia: inflammatory cell counts in bronchoalveolar lavage fluid; format: in vivo, BALB/c mice; conditions: from OVA-treated control group; 48 hours after last challenge
# Source text: (§4) Specific pathogen-free female BALB/c mice aged 8-10 weeks, which were routinely screened serologically for relevant respiratory pathogens, were purchased from ORIENT Co Ltd (Seoul, Korea).
# as §1, §2
# The mice were sacrificed with an overdose of pentobarbital (Sigma P3761) […] after the last challenge, and a tracheotomy was performed. After ice-cold 0.5 ml of PBS was instilled into the lungs, bronchoalveolar lavage fluid (BALF) was obtained by aspiration three times (total 1.5 ml) via tracheal cannulation (Yamazaki T, J. Jap. Bot., 43, pp 117-24, 1968)
# The total inflammatory cell number was assessed by counting cells in at least five squares of a hemocytometer after excluding dead cells confirmed by staining with trypan blue (Daigle I. et al., Swiss Med Wkly, 131, pp 231-7, 2001). 100 μl of BALF was loaded onto a slide and centrifuged (200×g, 4° C., 10 min) to fix the cells onto the slide using a cytospine machine (Hanil Science Industrial, Korea). The cells were stained by Diff-Quick® Stain reagents (Sysmex, Cat No. 38721, Switzerland) according to the manufacturer's instructions. Statistical significance was determined by Student's two-tailed t-test for independent means and the critical level for significance was set at P<0.05.
# To evaluate the suppression of verproside on the eosinophilia in OVA-challenged mice, the recruited cells in BALF were counted 48 hours after the last challenge. OVA caused a marked influx of leucocytes into the BALF from a PBS control group.
# [3] = tested on: OVA-challenged mice; assay: Lung histology (H&E and PAS staining) in OVA-challenged mice; format: in vivo, BALB/c mice; conditions: for mucus area score: PAS, five-point system 0-4, OVA-treated mice 3.60±0.64, FIG. 5
# Experimental: as §1, §2
# To estimate the suppressive effect of verproside on the eosinophilia, lung tissues were collected 48 hours after the last challenge. The lung tissue was fixed for 24 h in 10% neutral-buffered formalin. After being embedded in paraffin, it is sliced into 4-μm thickness of sections and the tissue was stained with H&E solution (hematoxylin; Sigma MHS-16 and eosin, Sigma HT110-I-32).
# In Periodic acid Schiff (PAS) staining, mucus overproduction in the OVA-treated mice was clearly observed as a violet color in the bronchial airways compared with the normal mice. […] Goblet-cell hyperplasia in the airway epithelium was quantified based on a five-point system: 0, no goblet cells; 1, <25% of the epithelium; 2, 25-50% of the epithelium; 3, 50-75% of the epithelium; 4, >75% of the epithelium. For each mouse, five airway sections that were randomly distributed throughout the left lung were analysed, and their average scores were calculated. Quantitative analysis of mucus production was performed using an image analyzer (Leica Microsystem Imaging solution Ltd.; Cambridge, UK).
# [4] = tested on: IL-13; assay: Measurement of IL-13 in BALF by ELISA in OVA-induced asthmatic mice; format: in vivo, mouse; conditions: from OVA-challenged group; 48 hours after last challenge
# Experimental: (§5) Following treatment: (1) sham-sensitization plus challenge with phosphate-buffered saline (PBS; ipNeb); (2) sensitization plus challenge with OVA (ovalbumin: Sigma A5503; Sigma, St. Louis, Mo.)(ipNeb); (3) sensitization with OVA (i.p.) plus challenge with OVA (Neb) and samples (extract of P. longifolium or montelukast) was performed to Group of mice (n=5). Briefly, mice were sensitized by intraperitoneal injection of 20 μg OVA, which was emulsified with 2 mg aluminum hydroxide in 100 μl of PBS buffer (pH 7.4) on days 0 and 14. […]
# as §3, with “Duplicate samples in plasma were diluted to 1:100.” left out, “The detection limit of the assays was 250 pg/ml.” left out
# (§6) To determine the effect of verproside on cytokine release in the OVA-induced asthmatic mice, the levels of cytokines (IL-4 and IL-13) in BALF were measured using ELISA 48 hours after the last challenge. […]
# [5] = tested on: IL-4; assay: Measurement of IL-4 in BALF by ELISA in OVA-induced asthmatic mice; format: in vivo, mouse; conditions: from OVA-challenged group; 48 hours after last challenge
# Experimental: as §5
# as §3, with “Duplicate samples in plasma were diluted to 1:100.” left out, “The detection limit of the assays was 250 pg/ml.” left out
# as §6
# [6] = tested on: OVA-sensitized/challenged mouse model; assay: Airway hyperresponsiveness (AHR), Penh values in OVA-challenged mice; format: in vivo, BALB/c mice; conditions: 24 hours after final OVA challenge; FIG. 1
# Experimental: The AHR was evaluated by calculation Penh values (enhanced pause) 24 hours after the final OVA challenge.
# as §4
# as §1, with “asthma. […]” for “asthma.”
# [7] = tested on: Promyelotic HL-60 cells; assay: MTT assay, cytotoxic effect on HL-60 cells; format: cell-based
# Experimental: (§7) To investigate the cytotoxic effect of inventive extract of P. longifolium extract and the compound isolated therefrom was determined by (3-[4,5-dimethylthiazol-2-yl]-2,5-diphenyl tetrazolium bromide(MTT) assay method (Wang Z et al., Biol., Pharm. Bull., 24, pp 159-162, 2001).
# (§8) Promyelotic HL-60 cells (HL-18103, 5×10^5 cells/ml) were seeded in 96-well plates under NGF-free condition. After 24 hours incubation, the cells were treated with the mixture of samples dissolved in 10 μl of DMSO and 10 μl of MTT solution (5 mg/ml), and incubated for 4 hours under similar condition. 4 hours later, MTT was removed and 100 μl of DMSO was dropped into each well to dissolve crystals. At 570 nm, UV absorbance was measured by microplate reader (BIO-RAD, U.S.A.) to calculate the cell viability.
# [8] = MTT assay, cytotoxic effect on HL-60 cells; format: cell-based; conditions: human, HL-60 promyelocytic cells, read-out: Cell viability (%)
# Experimental: as §7, §8
SMILES,IgE level in BALF [1] [ng/mL],IgE level in plasma [1] [µg/mL],decrease in eosinophils in BALF [2] [%],decrease in total cells in BALF [2] [%],mucus area score [3],"infiltration of eosinophil-rich leukocytes in lung tissue (H&E) ([3]; compared with OVA-treated mice, 48 hours after last challenge, FIG. 3)","mucus in bronchial airways (PAS staining) ([3]; compared with OVA-treated mice, FIG. 4)",decrease in IL-13 in BALF [4] [%],decrease in IL-4 in BALF [5] [%],Penh value compared with OVA-treated group (in words) [6],Cell viability (%) ([7]; 50 μM),Cell viability (%) ([7]; 100 μM),"viability at 4 h, 50 µM ([8]; 50 μM) [%]","viability at 4 h, 100 µM ([8]; 100 μM) [%]"
"O=C(O[C@H]1[C@@H]2C=CO[C@@H](O[C@@H]3O[C@H](CO)[C@@H](O)[C@H](O)[C@H]3O)[C@@H]2[C@@]2(CO)O[C@@H]12)c1ccc(O)c(O)c1 [verproside, 6-O-3,4-Dihydroxybenzoyl catalpol]",21.5 ± 11.2,40.2 ± 13.2,86.2±7.2,79.3±13.1,1.43±0.23,significantly attenuated,markedly diminished,74.9±15.5,64.5±27.7,significantly reduced,105,102,–,–
"CC(C)(O)c1ccccc1CC[C@@H](SCC1(CC(=O)O)CC1)c1cccc(/C=C/c2ccc3ccc(Cl)cc3n2)c1 [montelukast, reference compound]",3.8 ± 0.7,31.4 ± 14.2,80.7±11.1,78.3±12.1,1.53±0.24,–,–,84.5±8.2,69.5±22.0,–,–,–,–,–
"COc1ccc(C(=O)O[C@H]2[C@@H]3C=CO[C@@H](O[C@@H]4O[C@H](CO)[C@@H](O)[C@H](O)[C@H]4O)[C@@H]3[C@@]3(CO)O[C@@H]23)cc1OC [6-O-veratroyl catalpol, 6-O-(3,4-dimethoxybenzoyl) catalpol]",–,–,–,–,–,–,–,–,–,–,116,114,–,–
"COc1ccc(/C=C/C(=O)O[C@H]2[C@@H]3C=CO[C@@H](O[C@@H]4O[C@H](CO)[C@@H](O)[C@H](O)[C@H]4O)[C@@H]3[C@@]3(CO)O[C@@H]23)cc1O [Minecoside, 6-O-3-hydroxy-4-methozycinnamoyl catalpol]",–,–,–,–,–,–,–,–,–,–,–,–,98,95
